Reference: PubChem BioAssay (NCI)
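Compound exposure: 48 hours, 5 concentrations, 96-well plates. The concentration for 50% growth inhibition is given as GI50. TGI: total growth inhibition.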

Experiments:
Assay in all cases: NCI-60 cell line screen, 48 h
786-0 renal = system: 786-0 renal
A498 renal = system: A498 renal
A549 NSCLC = system: A549 NSCLC
ACHN renal = system: ACHN renal
BT-549 breast = system: BT-549 breast
CAKI-1 renal = system: CAKI-1 renal
CCRF-CEM leukemia = system: CCRF-CEM leukemia
COLO 205 colon = system: COLO 205 colon
DU-145 prostate = system: DU-145 prostate
EKVX NSCLC = system: EKVX NSCLC
HCC-2998 colon = system: HCC-2998 colon
HCT-116 colon = system: HCT-116 colon
HCT-15 colon = system: HCT-15 colon
HL-60(TB) leukemia = system: HL-60(TB) leukemia
HOP-62 NSCLC = system: HOP-62 NSCLC
HOP-92 NSCLC = system: HOP-92 NSCLC
HS 578T breast = system: HS 578T breast
HT29 colon = system: HT29 colon
IGROV1 ovarian = system: IGROV1 ovarian
K-562 leukemia = system: K-562 leukemia
KM12 colon = system: KM12 colon
LOX IMVI melanoma = system: LOX IMVI melanoma
M14 melanoma = system: M14 melanoma
MALME-3M melanoma = system: MALME-3M melanoma
MCF7 breast = system: MCF7 breast
MDA-MB-231 breast = system: MDA-MB-231 breast
MDA-MB-435 = system: MDA-MB-435
MDA-MB-468 breast = system: MDA-MB-468 breast
MOLT-4 leukemia = system: MOLT-4 leukemia
NCI-H226 lung = system: NCI-H226 lung
NCI-H23 lung = system: NCI-H23 lung
NCI-H460 lung = system: NCI-H460 lung
NCI-H522 lung = system: NCI-H522 lung
OVCAR-3 ovarian = system: OVCAR-3 ovarian
OVCAR-4 ovarian = system: OVCAR-4 ovarian
OVCAR-5 ovarian = system: OVCAR-5 ovarian
OVCAR-8 ovarian = system: OVCAR-8 ovarian
PC-3 prostate = system: PC-3 prostate
RPMI-8226 leukemia = system: RPMI-8226 leukemia
RXF 393 renal = system: RXF 393 renal
SF-268 CNS = system: SF-268 CNS
SF-295 CNS = system: SF-295 CNS
SF-539 CNS = system: SF-539 CNS
SK-MEL-2 melanoma = system: SK-MEL-2 melanoma
SK-MEL-28 melanoma = system: SK-MEL-28 melanoma
SK-MEL-5 melanoma = system: SK-MEL-5 melanoma
SK-OV-3 ovarian = system: SK-OV-3 ovarian
SNB-19 CNS = system: SNB-19 CNS
SNB-75 CNS = system: SNB-75 CNS
SR leukemia = system: SR leukemia
SW-620 colon = system: SW-620 colon
T-47D breast = system: T-47D breast
TK-10 renal = system: TK-10 renal
U251 CNS = system: U251 CNS
UACC-257 melanoma = system: UACC-257 melanoma
UACC-62 melanoma = system: UACC-62 melanoma
UO-31 renal = system: UO-31 renal

## N#C[Se]CC(=O)Nc1cccc(C(F)(F)F)c1
786-0 renal
  GI50: 2.25 µM
  TGI: 4.92 µM
A498 renal
  GI50: 3.95 µM
  TGI: 17.7 µM
A549 NSCLC
  GI50: 1.87 µM
  TGI: 4.27 µM
ACHN renal
  GI50: 3.29 µM
  TGI: 9.98 µM
BT-549 breast
  GI50: 1.57 µM
  TGI: 3.05 µM
CAKI-1 renal
  GI50: 2.23 µM
  TGI: 4.77 µM
CCRF-CEM leukemia
  GI50: 4.34 µM
  TGI: 34.6 µM
COLO 205 colon
  GI50: 10.1 µM
  TGI: 24.3 µM
DU-145 prostate
  GI50: 1.9 µM
  TGI: 4.32 µM
EKVX NSCLC
  GI50: 1.46 µM
  TGI: 2.94 µM
HCC-2998 colon
  GI50: 13.7 µM
  TGI: 29.5 µM
HCT-116 colon
  GI50: 1.92 µM
  TGI: 4.16 µM
HCT-15 colon
  GI50: 1.72 µM
  TGI: 3.31 µM
HL-60(TB) leukemia
  GI50: 2.22 µM
  TGI: 6.31 µM
HOP-62 NSCLC
  GI50: 3.41 µM
  TGI: 9.67 µM
HOP-92 NSCLC
  GI50: 1.84 µM
  TGI: 3.63 µM
HS 578T breast
  GI50: 2.46 µM
  TGI: 9.3 µM
HT29 colon
  GI50: 3.66 µM
  TGI: 15.2 µM
IGROV1 ovarian
  GI50: 1.55 µM
  TGI: 3.57 µM
K-562 leukemia
  GI50: 6.02 µM
  TGI: > 100 µM
KM12 colon
  GI50: 6.87 µM
  TGI: 33.8 µM
LOX IMVI melanoma
  GI50: 1.49 µM
  TGI: 3.21 µM
M14 melanoma
  GI50: 1.9 µM
  TGI: 5.02 µM
MALME-3M melanoma
  GI50: 1.51 µM
  TGI: 3.24 µM
MCF7 breast
  GI50: 2.72 µM
  TGI: 20 µM
MDA-MB-231 breast
  GI50: 1.85 µM
  TGI: 3.67 µM
MDA-MB-435
  GI50: 1.95 µM
  TGI: 4.35 µM
MDA-MB-468 breast
  GI50: 1.71 µM
  TGI: 3.44 µM
MOLT-4 leukemia
  GI50: 3.77 µM
  TGI: 26.2 µM
NCI-H226 lung
  GI50: 1.78 µM
  TGI: 4.74 µM
NCI-H23 lung
  GI50: 2.25 µM
  TGI: 5.59 µM
NCI-H460 lung
  GI50: 2.47 µM
  TGI: 9.83 µM
NCI-H522 lung
  GI50: 3.62 µM
  TGI: 14.5 µM
OVCAR-3 ovarian
  GI50: 2.33 µM
  TGI: 7.21 µM
OVCAR-4 ovarian
  GI50: 5.93 µM
  TGI: 62 µM
OVCAR-5 ovarian
  GI50: 2.69 µM
  TGI: 7.17 µM
OVCAR-8 ovarian
  GI50: 2.01 µM
  TGI: 4.48 µM
PC-3 prostate
  GI50: 5.77 µM
  TGI: 31 µM
RPMI-8226 leukemia
  GI50: 18.3 µM
  TGI: 86.7 µM
RXF 393 renal
  GI50: 2.37 µM
  TGI: 6.01 µM
SF-268 CNS
  GI50: 3.16 µM
  TGI: 12.2 µM
SF-295 CNS
  GI50: 2.04 µM
  TGI: 4.1 µM
SF-539 CNS
  GI50: 1.78 µM
  TGI: 3.25 µM
SK-MEL-2 melanoma
  GI50: 9.03 µM
  TGI: 47.8 µM
SK-MEL-28 melanoma
  GI50: 2.01 µM
  TGI: 5.07 µM
SK-MEL-5 melanoma
  GI50: 1.19 µM
  TGI: 2.78 µM
SK-OV-3 ovarian
  GI50: 8.34 µM
  TGI: 31.9 µM
SNB-19 CNS
  GI50: 1.86 µM
  TGI: 4.08 µM
SNB-75 CNS
  GI50: 1.72 µM
  TGI: 5.26 µM
SR leukemia
  GI50: 5.35 µM
  TGI: > 100 µM
SW-620 colon
  GI50: 2.41 µM
  TGI: 5.55 µM
T-47D breast
  GI50: 6.48 µM
  TGI: 86.6 µM
TK-10 renal
  GI50: 2.55 µM
  TGI: 6.79 µM
U251 CNS
  GI50: 2.13 µM
  TGI: 5.52 µM
UACC-257 melanoma
  GI50: 3.1 µM
  TGI: 19.9 µM
UACC-62 melanoma
  GI50: 1.73 µM
  TGI: 4.33 µM
UO-31 renal
  GI50: 1.3 µM
  TGI: 2.65 µM
